Laboratory results: PubChem BioAssay AID2060900 (Molecular Pharmacology Branch, DTP, NCI, 2025)
One block for each molecule: values may come before it.

Tested on: 521955-158-R2-J5-PDC complex spheroids, viability
Experiment: Anticancer human tumor 521955-158-R2-J5-PDC patient-derived pancreatic carcinoma cell line growth inhibition [RAS]
Settings: for IC50: curve of first compound; for viability, T/C: stronger effect = lower value
Method in brief: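 Tumour cells grown as complex spheroids with HUVEC endothelial cells and mesenchymal stem cells, treated with RAS pathway inhibitor combinations. Each agent spans half-log steps from near clinical Cmax, or 10 microM where Cmax is unknown.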

[1] = second compound 0.0316 µM, first compound 0.0316 µM
[2] = second compound 0.0316 µM, first compound 0.1 µM
[3] = second compound 0.0316 µM, first compound 0.316 µM
[4] = second compound 0.0316 µM, first compound 1 µM
[5] = second compound 0.0316 µM, first compound 3.16 µM
[6] = second compound 0.0316 µM, first compound 10 µM
[7] = second compound 0.1 µM, first compound 0.0316 µM
[8] = second compound 0.1 µM, first compound 0.1 µM
[9] = second compound 0.1 µM, first compound 0.316 µM
[10] = second compound 0.1 µM, first compound 1 µM
[11] = second compound 0.1 µM, first compound 3.16 µM
[12] = second compound 0.1 µM, first compound 10 µM
[13] = second compound 0.316 µM, first compound 0.0316 µM
[14] = second compound 0.316 µM, first compound 0.1 µM
[15] = second compound 0.316 µM, first compound 0.316 µM
[16] = second compound 0.316 µM, first compound 1 µM
[17] = second compound 0.316 µM, first compound 3.16 µM
[18] = second compound 0.316 µM, first compound 10 µM
[19] = second compound 1 µM, first compound 0.0316 µM
[20] = second compound 1 µM, first compound 0.1 µM
[21] = second compound 1 µM, first compound 0.316 µM
[22] = second compound 1 µM, first compound 1 µM
[23] = second compound 1 µM, first compound 3.16 µM
[24] = second compound 1 µM, first compound 10 µM
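Note: compound exposure lasted seven days before the viability read.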
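Throughout, for viability, T/C: spheroids also contain HUVEC endothelial cells and mesenchymal stem cells as stroma.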

IC50 (second compound 0.0316 µM): > 10000 nM | IC50 (second compound 0.1 µM): 3760 nM | IC50 (second compound 0.316 µM): < 31.6 nM | IC50 (second compound 1 µM): 31.6 nM | IC50 (second compound 3.16 µM): < 31.6 nM | IC50 (second compound 10 µM): < 31.6 nM
SMILES: CC1(O)CCCC1n1c(=O)c(C(F)F)cc2cnc(NC3CCN(S(C)(=O)=O)CC3)nc21 (stereo unspecified) + C#Cc1c(F)ccc2cc(O)cc(-c3ncc4c(N5CC6CCC(C5)N6)nc(OCC56CCCN5CC(F)C6)nc4c3F)c12
viability, T/C [1]: 53.9% | viability, T/C [2]: 48% | viability, T/C [3]: 60.1% | viability, T/C [4]: 68.4% | viability, T/C [5]: 75.1% | viability, T/C [6]: 24.9% | viability, T/C [7]: 48.8% | viability, T/C [8]: 56.6% | viability, T/C [9]: 43.4% | viability, T/C [10]: 53.9% | viability, T/C [11]: 73% | viability, T/C [12]: 21.3% | viability, T/C [13]: 44.5% | viability, T/C [14]: 37.4% | viability, T/C [15]: 41.1% | viability, T/C [16]: 51.3% | viability, T/C [17]: 63.1% | viability, T/C [18]: 19.5% | viability, T/C [19]: 52.3% | viability, T/C [20]: 41.4% | viability, T/C [21]: 39.8% | viability, T/C [22]: 47.8% | viability, T/C [23]: 59.5% | viability, T/C [24]: 21.6% | viability, T/C (second compound 3.16 µM, first compound 0.0316 µM): 45.9% | viability, T/C (second compound 3.16 µM, first compound 0.1 µM): 31.5% | viability, T/C (second compound 3.16 µM, first compound 0.316 µM): 38.8% | viability, T/C (second compound 3.16 µM, first compound 1 µM): 40.6% | viability, T/C (second compound 3.16 µM, first compound 3.16 µM): 56.6% | viability, T/C (second compound 3.16 µM, first compound 10 µM): 24.4% | viability, T/C (second compound 10 µM, first compound 0.0316 µM): 42.4% | viability, T/C (second compound 10 µM, first compound 0.1 µM): 30.6% | viability, T/C (second compound 10 µM, first compound 0.316 µM): 40.4% | viability, T/C (second compound 10 µM, first compound 1 µM): 46.2% | viability, T/C (second compound 10 µM, first compound 3.16 µM): 62.8% | viability, T/C (second compound 10 µM, first compound 10 µM): 12.3%

IC50 (second compound 0.000949 µM): 21 nM | IC50 (second compound 0.003 µM): 20 nM | IC50 (second compound 0.00949 µM): 23.6 nM | IC50 (second compound 0.03 µM): 27.1 nM | IC50 (second compound 0.0949 µM): 19.2 nM | IC50 (second compound 0.3 µM): 13.5 nM
SMILES: CC(C)n1nc(-c2ccc3oc(N)nc3c2)c2c(N)ncnc21 + CCn1c(-c2cccnc2C(C)OC)c2c3cc(ccc31)N1CCOC(CC(NC(=O)C(C(C)C)N(C)C(=O)C3(F)CCN(C(=O)C#CC(C)(C)N(C)C)CC3)C(=O)N3CCCC(N3)C(=O)OCC(C)(C)C2)C1
viability, T/C (second compound 0.000949 µM, first compound 0.000316 µM): 96.7% | viability, T/C (second compound 0.000949 µM, first compound 0.001 µM): 77.1% | viability, T/C (second compound 0.000949 µM, first compound 0.00316 µM): 83.1% | viability, T/C (second compound 0.000949 µM, first compound 0.01 µM): 61.4% | viability, T/C (second compound 0.000949 µM, first compound 0.0316 µM): 41.8% | viability, T/C (second compound 0.000949 µM, first compound 0.1 µM): 36.5% | viability, T/C (second compound 0.003 µM, first compound 0.000316 µM): 82% | viability, T/C (second compound 0.003 µM, first compound 0.001 µM): 91% | viability, T/C (second compound 0.003 µM, first compound 0.00316 µM): 91.4% | viability, T/C (second compound 0.003 µM, first compound 0.01 µM): 64.8% | viability, T/C (second compound 0.003 µM, first compound 0.0316 µM): 41.5% | viability, T/C (second compound 0.003 µM, first compound 0.1 µM): 30.1% | viability, T/C (second compound 0.00949 µM, first compound 0.000316 µM): 93.3% | viability, T/C (second compound 0.00949 µM, first compound 0.001 µM): 85.7% | viability, T/C (second compound 0.00949 µM, first compound 0.00316 µM): 83.6% | viability, T/C (second compound 0.00949 µM, first compound 0.01 µM): 70.3% | viability, T/C (second compound 0.00949 µM, first compound 0.0316 µM): 42.5% | viability, T/C (second compound 0.00949 µM, first compound 0.1 µM): 29.2% | viability, T/C (second compound 0.03 µM, first compound 0.000316 µM): 89.2% | viability, T/C (second compound 0.03 µM, first compound 0.001 µM): 101% | viability, T/C (second compound 0.03 µM, first compound 0.00316 µM): 90.4% | viability, T/C (second compound 0.03 µM, first compound 0.01 µM): 69.8% | viability, T/C (second compound 0.03 µM, first compound 0.0316 µM): 48.6% | viability, T/C (second compound 0.03 µM, first compound 0.1 µM): 34.2% | viability, T/C (second compound 0.0949 µM, first compound 0.000316 µM): 73.5% | viability, T/C (second compound 0.0949 µM, first compound 0.001 µM): 83.1% | viability, T/C (second compound 0.0949 µM, first compound 0.00316 µM): 86.2% | viability, T/C (second compound 0.0949 µM, first compound 0.01 µM): 63.3% | viability, T/C (second compound 0.0949 µM, first compound 0.0316 µM): 39.9% | viability, T/C (second compound 0.0949 µM, first compound 0.1 µM): 28.8% | viability, T/C (second compound 0.3 µM, first compound 0.000316 µM): 73.9% | viability, T/C (second compound 0.3 µM, first compound 0.001 µM): 70.3% | viability, T/C (second compound 0.3 µM, first compound 0.00316 µM): 85.2% | viability, T/C (second compound 0.3 µM, first compound 0.01 µM): 55.2% | viability, T/C (second compound 0.3 µM, first compound 0.0316 µM): 40.7% | viability, T/C (second compound 0.3 µM, first compound 0.1 µM): 30%

IC50 (second compound 0.00316 µM): 5890 nM | IC50 (second compound 0.01 µM): 6180 nM | IC50 (second compound 0.0316 µM): 6070 nM | IC50 (second compound 0.1 µM): 6240 nM | IC50 (second compound 0.316 µM): 6020 nM | IC50 (second compound 1 µM): 6060 nM
SMILES: CC1(O)CCCC1n1c(=O)c(C(F)F)cc2cnc(NC3CCN(S(C)(=O)=O)CC3)nc21 (stereo unspecified) + C=CC(=O)N1CCN(c2nc(OCC3CCCN3C)nc3c(F)c(-c4nc(N)cc(C)c4C(F)(F)F)c(Cl)cc23)C(C)C1
viability, T/C (second compound 0.00316 µM, first compound 0.0316 µM): 93.1% | viability, T/C (second compound 0.00316 µM, first compound 0.1 µM): 83% | viability, T/C (second compound 0.00316 µM, first compound 0.316 µM): 81% | viability, T/C (second compound 0.00316 µM, first compound 1 µM): 80.9% | viability, T/C (second compound 0.00316 µM, first compound 3.16 µM): 121% | viability, T/C (second compound 0.00316 µM, first compound 10 µM): 14.4% | viability, T/C (second compound 0.01 µM, first compound 0.0316 µM): 85.9% | viability, T/C (second compound 0.01 µM, first compound 0.1 µM): 98% | viability, T/C (second compound 0.01 µM, first compound 0.316 µM): 78.6% | viability, T/C (second compound 0.01 µM, first compound 1 µM): 102% | viability, T/C (second compound 0.01 µM, first compound 3.16 µM): 112% | viability, T/C (second compound 0.01 µM, first compound 10 µM): 17.2% | viability, T/C [1]: 87.7% | viability, T/C [2]: 121% | viability, T/C [3]: 80.2% | viability, T/C [4]: 96.4% | viability, T/C [5]: 108% | viability, T/C [6]: 12.7% | viability, T/C [7]: 135% | viability, T/C [8]: 85.2% | viability, T/C [9]: 75.2% | viability, T/C [10]: 109% | viability, T/C [11]: 111% | viability, T/C [12]: 13% | viability, T/C [13]: 123% | viability, T/C [14]: 79.3% | viability, T/C [15]: 78.3% | viability, T/C [16]: 89.8% | viability, T/C [17]: 116% | viability, T/C [18]: 12.7% | viability, T/C [19]: 127% | viability, T/C [20]: 89.1% | viability, T/C [21]: 69.5% | viability, T/C [22]: 84% | viability, T/C [23]: 119% | viability, T/C [24]: 13%
